# PubChem BioAssay (NCI)
#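 Exposure lasted 48 hours, with cells grown in 96-well plates and compounds tested at five concentrations. The concentration for full growth arrest is given as TGI.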
# Legend:
# Assay in all cases: NCI anticancer screen, dose series, 48 h
# BT-549 breast = test system: BT-549 breast
# SN12C renal = test system: SN12C renal
# HCT-15 colon = test system: HCT-15 colon
# UO-31 renal = test system: UO-31 renal
# RPMI-8226 leukemia = test system: RPMI-8226 leukemia
# SK-MEL-5 melanoma = test system: SK-MEL-5 melanoma
# NCI-H226 lung = test system: NCI-H226 lung
# SF-268 CNS = test system: SF-268 CNS
# MDA-MB-231 breast = test system: MDA-MB-231 breast
# NCI-H23 lung = test system: NCI-H23 lung
# HT29 colon = test system: HT29 colon
# 786-0 renal = test system: 786-0 renal
# PC-3 prostate = test system: PC-3 prostate
# COLO 205 colon = test system: COLO 205 colon
# UACC-62 melanoma = test system: UACC-62 melanoma
# HS 578T breast = test system: HS 578T breast
# DU-145 prostate = test system: DU-145 prostate
# A549 NSCLC = test system: A549 NSCLC
# HL-60(TB) leukemia = test system: HL-60(TB) leukemia
# A498 renal = test system: A498 renal
# NCI-H460 lung = test system: NCI-H460 lung
# SK-MEL-28 melanoma = test system: SK-MEL-28 melanoma
# MALME-3M melanoma = test system: MALME-3M melanoma
# HOP-62 NSCLC = test system: HOP-62 NSCLC
# HCT-116 colon = test system: HCT-116 colon
# MDA-N = test system: MDA-N
# SF-295 CNS = test system: SF-295 CNS
# MCF7 breast = test system: MCF7 breast
# CAKI-1 renal = test system: CAKI-1 renal
# SK-OV-3 ovarian = test system: SK-OV-3 ovarian
# SNB-75 CNS = test system: SNB-75 CNS
# HOP-92 NSCLC = test system: HOP-92 NSCLC
# SNB-19 CNS = test system: SNB-19 CNS
# NCI/ADR-RES ovarian = test system: NCI/ADR-RES ovarian
# ACHN renal = test system: ACHN renal
# NCI-H522 lung = test system: NCI-H522 lung
# KM12 colon = test system: KM12 colon
# M14 melanoma = test system: M14 melanoma
# MDA-MB-435 = test system: MDA-MB-435
# IGROV1 ovarian = test system: IGROV1 ovarian
# T-47D breast = test system: T-47D breast
# OVCAR-8 ovarian = test system: OVCAR-8 ovarian
# SK-MEL-2 melanoma = test system: SK-MEL-2 melanoma
# EKVX NSCLC = test system: EKVX NSCLC
# CCRF-CEM leukemia = test system: CCRF-CEM leukemia
# LOX IMVI melanoma = test system: LOX IMVI melanoma
# OVCAR-4 ovarian = test system: OVCAR-4 ovarian
# SR leukemia = test system: SR leukemia
# HCC-2998 colon = test system: HCC-2998 colon
# OVCAR-3 ovarian = test system: OVCAR-3 ovarian
# K-562 leukemia = test system: K-562 leukemia
# SF-539 CNS = test system: SF-539 CNS
# RXF 393 renal = test system: RXF 393 renal
# TK-10 renal = test system: TK-10 renal
# U251 CNS = test system: U251 CNS
# SW-620 colon = test system: SW-620 colon
# UACC-257 melanoma = test system: UACC-257 melanoma
# OVCAR-5 ovarian = test system: OVCAR-5 ovarian
# MOLT-4 leukemia = test system: MOLT-4 leukemia
structure (smiles),measurement,setting,value
C=C1C(=O)O[C@H]2[C@@H](O)[C@H](C)CCC/C(C)=C/CC[C@@]3(C)O[C@@H]3C[C@@H]12,TGI,BT-549 breast,14.5 µM
same,TGI,SN12C renal,22.6 µM
same,TGI,HCT-15 colon,4.68 µM
same,TGI,UO-31 renal,18.2 µM
same,TGI,RPMI-8226 leukemia,25.7 µM
same,TGI,SK-MEL-5 melanoma,28.1 µM
same,TGI,NCI-H226 lung,3.34 µM
same,TGI,SF-268 CNS,22 µM
same,TGI,MDA-MB-231 breast,31.7 µM
same,TGI,NCI-H23 lung,21.8 µM
same,TGI,HT29 colon,28.7 µM
same,TGI,786-0 renal,14.9 µM
same,TGI,PC-3 prostate,> 57.6 µM
same,TGI,COLO 205 colon,12.3 µM
same,TGI,UACC-62 melanoma,22.6 µM
same,TGI,HS 578T breast,> 100 µM
same,TGI,DU-145 prostate,19.1 µM
same,TGI,A549 NSCLC,> 60.9 µM
same,TGI,HL-60(TB) leukemia,> 27.4 µM
same,TGI,A498 renal,25.3 µM
same,TGI,NCI-H460 lung,16.8 µM
same,TGI,SK-MEL-28 melanoma,33.5 µM
same,TGI,MALME-3M melanoma,30.6 µM
same,TGI,HOP-62 NSCLC,56.3 µM
same,TGI,HCT-116 colon,12.4 µM
same,TGI,MDA-N,25.6 µM
same,TGI,SF-295 CNS,34.9 µM
same,TGI,MCF7 breast,36.4 µM
same,TGI,CAKI-1 renal,6.9 µM
same,TGI,SK-OV-3 ovarian,34.2 µM
same,TGI,SNB-75 CNS,29.6 µM
same,TGI,HOP-92 NSCLC,8.04 µM
same,TGI,SNB-19 CNS,37.5 µM
same,TGI,NCI/ADR-RES ovarian,37.9 µM
same,TGI,ACHN renal,6.16 µM
same,TGI,NCI-H522 lung,8.28 µM
same,TGI,KM12 colon,33.1 µM
same,TGI,M14 melanoma,18.4 µM
same,TGI,MDA-MB-435,29.5 µM
same,TGI,IGROV1 ovarian,15.6 µM
same,TGI,T-47D breast,12.3 µM
same,TGI,OVCAR-8 ovarian,> 51.2 µM
same,TGI,SK-MEL-2 melanoma,48.9 µM
same,TGI,EKVX NSCLC,19 µM
same,TGI,CCRF-CEM leukemia,11.7 µM
same,TGI,LOX IMVI melanoma,19.3 µM
same,TGI,OVCAR-4 ovarian,19.8 µM
same,TGI,SR leukemia,14.7 µM
same,TGI,HCC-2998 colon,26 µM
same,TGI,OVCAR-3 ovarian,31.1 µM
same,TGI,K-562 leukemia,> 100 µM
same,TGI,SF-539 CNS,11.8 µM
same,TGI,RXF 393 renal,16.4 µM
same,TGI,TK-10 renal,3.95 µM
same,TGI,U251 CNS,26.9 µM
same,TGI,SW-620 colon,39.9 µM
same,TGI,UACC-257 melanoma,22.4 µM
same,TGI,OVCAR-5 ovarian,34.8 µM
Cc1nc2ccccc2n1CCc1nc2ccccc2[nH]1,TGI,BT-549 breast,> 100 µM
same,TGI,SN12C renal,> 100 µM
same,TGI,HCT-15 colon,> 100 µM
same,TGI,UO-31 renal,> 100 µM
same,TGI,RPMI-8226 leukemia,> 100 µM
same,TGI,SK-MEL-5 melanoma,> 100 µM
same,TGI,NCI-H226 lung,> 100 µM
same,TGI,SF-268 CNS,> 100 µM
same,TGI,MDA-MB-231 breast,> 100 µM
same,TGI,NCI-H23 lung,> 100 µM
same,TGI,HT29 colon,> 100 µM
same,TGI,786-0 renal,> 100 µM
same,TGI,PC-3 prostate,> 100 µM
same,TGI,COLO 205 colon,> 100 µM
same,TGI,MOLT-4 leukemia,> 100 µM
same,TGI,UACC-62 melanoma,> 100 µM
same,TGI,HS 578T breast,> 100 µM
same,TGI,DU-145 prostate,> 100 µM
same,TGI,A549 NSCLC,> 100 µM
same,TGI,HL-60(TB) leukemia,> 100 µM
same,TGI,A498 renal,> 100 µM
same,TGI,NCI-H460 lung,> 100 µM
same,TGI,SK-MEL-28 melanoma,> 100 µM
same,TGI,MALME-3M melanoma,> 100 µM
same,TGI,HOP-62 NSCLC,> 100 µM
same,TGI,HCT-116 colon,> 100 µM
same,TGI,MDA-N,> 100 µM
same,TGI,SF-295 CNS,> 100 µM
same,TGI,MCF7 breast,> 100 µM
same,TGI,CAKI-1 renal,> 100 µM
same,TGI,SK-OV-3 ovarian,> 100 µM
same,TGI,SNB-75 CNS,> 100 µM
same,TGI,HOP-92 NSCLC,> 100 µM
same,TGI,SNB-19 CNS,> 100 µM
same,TGI,NCI/ADR-RES ovarian,> 100 µM
same,TGI,ACHN renal,> 100 µM
same,TGI,NCI-H522 lung,> 100 µM
same,TGI,KM12 colon,> 100 µM
same,TGI,M14 melanoma,> 100 µM
same,TGI,MDA-MB-435,> 100 µM
same,TGI,IGROV1 ovarian,> 100 µM
same,TGI,T-47D breast,> 100 µM
same,TGI,OVCAR-8 ovarian,> 100 µM
same,TGI,SK-MEL-2 melanoma,> 100 µM
same,TGI,EKVX NSCLC,> 100 µM
same,TGI,CCRF-CEM leukemia,> 100 µM
same,TGI,LOX IMVI melanoma,> 100 µM
same,TGI,OVCAR-4 ovarian,> 100 µM
same,TGI,SR leukemia,> 100 µM
same,TGI,HCC-2998 colon,> 100 µM
same,TGI,OVCAR-3 ovarian,> 100 µM
same,TGI,K-562 leukemia,> 100 µM
same,TGI,SF-539 CNS,> 100 µM
same,TGI,RXF 393 renal,> 100 µM
same,TGI,TK-10 renal,> 100 µM
same,TGI,U251 CNS,> 100 µM
same,TGI,SW-620 colon,> 100 µM
same,TGI,UACC-257 melanoma,> 100 µM
same,TGI,OVCAR-5 ovarian,> 100 µM
Cc1cc(C(C)(C)C)c(OCCCN2CCOCC2)c(C(C)(C)C)c1,TGI,BT-549 breast,31.9 µM
same,TGI,SN12C renal,33 µM
same,TGI,HCT-15 colon,32.7 µM
same,TGI,UO-31 renal,32.7 µM
same,TGI,RPMI-8226 leukemia,34.8 µM
same,TGI,SK-MEL-5 melanoma,30 µM
same,TGI,SF-268 CNS,33.5 µM
same,TGI,MDA-MB-231 breast,32.2 µM
same,TGI,NCI-H23 lung,32 µM
same,TGI,HT29 colon,32.7 µM
same,TGI,786-0 renal,31.9 µM
same,TGI,PC-3 prostate,29.9 µM
same,TGI,COLO 205 colon,30.6 µM
same,TGI,MOLT-4 leukemia,33.7 µM
same,TGI,UACC-62 melanoma,29.8 µM
same,TGI,HS 578T breast,38.6 µM
same,TGI,DU-145 prostate,34.1 µM
same,TGI,A549 NSCLC,32.5 µM
same,TGI,HL-60(TB) leukemia,29 µM
same,TGI,A498 renal,33.4 µM
same,TGI,NCI-H460 lung,> 100 µM
same,TGI,SK-MEL-28 melanoma,30.5 µM
same,TGI,MALME-3M melanoma,35 µM
same,TGI,HOP-62 NSCLC,38.6 µM
same,TGI,HCT-116 colon,31.4 µM
same,TGI,MDA-N,34 µM
same,TGI,SF-295 CNS,33.1 µM
same,TGI,MCF7 breast,33.6 µM
same,TGI,CAKI-1 renal,34.5 µM
same,TGI,SK-OV-3 ovarian,35.6 µM
same,TGI,SNB-75 CNS,32.6 µM
same,TGI,HOP-92 NSCLC,35 µM
same,TGI,SNB-19 CNS,32.1 µM
same,TGI,NCI/ADR-RES ovarian,32 µM
same,TGI,ACHN renal,31.2 µM
same,TGI,NCI-H522 lung,33.2 µM
same,TGI,KM12 colon,36 µM
same,TGI,M14 melanoma,31.7 µM
same,TGI,MDA-MB-435,38.2 µM
same,TGI,IGROV1 ovarian,34.2 µM
same,TGI,T-47D breast,34.1 µM
same,TGI,OVCAR-8 ovarian,35.4 µM
same,TGI,SK-MEL-2 melanoma,31.3 µM
same,TGI,EKVX NSCLC,32.5 µM
same,TGI,CCRF-CEM leukemia,33.2 µM
same,TGI,LOX IMVI melanoma,36.5 µM
same,TGI,OVCAR-4 ovarian,31.5 µM
same,TGI,SR leukemia,47 µM
same,TGI,HCC-2998 colon,30.3 µM
same,TGI,OVCAR-3 ovarian,36.1 µM
same,TGI,K-562 leukemia,33.3 µM
same,TGI,SF-539 CNS,33.7 µM
same,TGI,RXF 393 renal,31.9 µM
same,TGI,TK-10 renal,36.2 µM
same,TGI,U251 CNS,33.2 µM
same,TGI,SW-620 colon,32.3 µM
same,TGI,UACC-257 melanoma,32 µM
same,TGI,OVCAR-5 ovarian,33 µM
